Molecules are shown by their SMILES. Converted amounts (≈) assume the structure as drawn. Like-named read-outs stand apart in the source and are kept apart here. Bounds are passed on as bounds.

Assay [1] deals with C. elegans L1 and L4 larvae. Description: In vitro nematicidal efficacy of methylketones on C. elegans larvae. The class given is cell-based. Conditions: Caenorhabditis elegans. The protocol: (§1) The example illustrates the surprising nematicidal efficacy of various methylketones. Methylketones of various chain lengths were tested in vitro against C. elegans L1 and L4 larvae and M. incognita pre-parasitic J2 larvae, the dispersal larval stage found in the soil. […] IC30 is defined as the concentration of the methylketone at which 30 percent of the nematodes are killed after an exposure of 4 hours for C. elegans and 24 hours for M. incognita.

For assay [2], the system named is M. incognita pre-parasitic J2 larvae. The assay can be described thus: In vitro nematicidal efficacy of methylketones on M. incognita J2 larvae. The assay is classed as cell-based. To be noted: Meloidogyne incognita, read-out: IC30 M. incognita vs. J2. Here is the method:
as §1

The subject of assay [3] is root knot nematode (M. incognita). Description: Greenhouse whole plant assay, root knot nematode infection of tomato in sand. Conditions: for nematode control (in words): M. incognita, greenhouse, 40 and 8 kg/ha; for % Control: control of nematode-induced galling; for % Galled Roots: soil application before inoculation, harvest 21 days, no compound added: 60. The assay is classed as in vivo. The protocol:
(§2) Whole plant assays were used to determine the efficacy of the methylketones on the infection of soybean plants and tomato plants by nematodes, H. glycines and M. incognita, respectively. The seeds were planted in 100 percent sand in two-inch square plastic pots and grown to a sufficient size for treatment. […] Following methylketone treatment, nematodes were inoculated into each pot and for soybeans are then incubated for 28 days before harvest and for tomatoes incubated 21 days before harvest.
(§3) To each of four pots, five milliliters of the appropriate chemical solution is applied to the surface making sure to avoid contact with the base of the plant. Immediately following the chemical application, the pot surface is wetted sufficiently to water in the chemical. One milligram of chemical per four pots is approximately equivalent to one kilogram per hectare of chemical. A standard test uses four replications. For rates above 2 kg/ha, the desired amount of chemical is weighed into a 30 ml vial (example: 8 kg/ha rate=8 mg chemical in 30 ml vial). The chemical is dissolved in 2 ml of an appropriate solvent, generally acetone. For rates below 2 kg/ha, 2 milligrams of chemistry is weighed into the vial and dissolved in 2 ml of the solvent. The appropriate amount of chemical concentrate is then applied into a separate 30 ml vial and solvent is added to bring the volume to 2 ml (example 0.5 kg/ha=0.5 ml of concentrate+1.5 ml solvent). Each dissolved concentrate is then brought to a total of 20 milliliters using 0.05% Triton X-100 surfactant solution.
(§4) Nematode eggs, either SCN or RKN, are added to distilled water to create a concentration of 1000 vermiform eggs per […] of water. At least four hours after chemical treatment the eggs are applied to the treated pots plus non-treated check plants. A small hole about 1 cm deep is punched into the pot surface. One milliliter of the nematode egg slurry is applied into the hole. Immediately afterwards the hole is gently covered. Watering of the test plants is then restricted to a minimum volume needed to prevent wilting for a period of 24 hours. After the 24 hour restricted watering, normal sub-irrigation watering is done for the duration of the test.
The 2-undecanone, 2-tridecanone, and 2-pentadecanone are tested in greenhouse studies against M. incognita infection of tomato roots in sand. […] Shown in Table 2 is a high level of nematicidal activity of various methylketones observed against root knot nematode (M. incognita) inoculated into treated pots containing tomato plants. […] The listed kilograms/hectare (kg/ha) rating is based upon the surface area of the test pots; 1 kg/ha equates to about 1.65 mg compound per kilogram of soil in these assays.

Assay [4] has as its system soybean cyst nematode (H. glycines). Description: Greenhouse whole plant assay, soybean cyst nematode infection of soybean. The class given is in vivo. Conditions: for % Control: relative to the non-treated; for #cysts/plant: soil drench prior to inoculation, harvest 28 days, no compound added: 49. Here is the method: as §2, §3, §4
2-tridecanone was also assayed in the greenhouse for control of soybean cyst nematode (H. glycines) in soybeans (Table 3). Nematode control (#cysts/plant) is observed at 40 kg/ha (96% control relative to the non-treated) and 8 kg/ha (80% control relative to the non-treated) when 2-tridecanone was applied as a soil drench prior to nematode inoculation.

[5] abbreviates: concentration at which 30 percent of the nematodes are killed, exposure 4 hours, L1 larvae, read-out: IC30 C. elegans vs. L1.
[6] abbreviates: concentration at which 30 percent of the nematodes are killed, exposure 4 hours, L4 larvae, read-out: IC30 C. elegans vs. L4.
[7] abbreviates: concentration at which 30 percent of the nematodes are killed, exposure 24 hours, J2 larvae.

A word on the IC30: it is the concentration at which the effect reaches the 30% level. For the compound `CCCCCC(C)=O` [2-heptanone], the IC30 in assay [1] (setting [5]) was > 400 µg/mL; in assay [1] (setting [6]), > 400 µg/mL; in assay [2] (setting [7]), 400 µg/mL (≈ 3500 µM).

In the case of `CCCCCCCCCCCCC(C)=O` [2-tetradecanone], the IC30 in assay [1] (setting [5]) is 3.2 µg/mL (≈ 15.1 µM); in assay [1] (setting [6]), > 100 µg/mL; in assay [2] (setting [7]) it was 25 µg/mL (≈ 118 µM).

As to `CCCCCCCCC(C)=O` [2-decanone], the IC30 in assay [1] (setting [5]) is 6.3 µg/mL (≈ 40.3 µM); in assay [1] (setting [6]) it was > 400 µg/mL; in assay [2] (setting [7]), 25 µg/mL (≈ 160 µM).

With `CCCCCCCCCCC(C)=O` [2-dodecanone], the IC30 was determined as 3.2 µg/mL (≈ 17.4 µM) in assay [1] (setting [5]), 25 µg/mL (≈ 136 µM) in assay [1] (setting [6]) and 50 µg/mL (≈ 271 µM) in assay [2] (setting [7]).

For `CCCCCCCCCCCCCC(C)=O` [2-pentadecanone], the figures for the IC30 in assay [1] (setting [5]), in assay [1] (setting [6]) and in assay [2] (setting [7]) were 12.5 µg/mL (≈ 55.2 µM), > 100 µg/mL and 400 µg/mL (≈ 1770 µM), respectively. In addition, the “nematode control (in words)” value in assay [3] was “demonstrated nematode control”. Further, the “% Control” value was determined as 25% in assay [3] (rate 8 kg/ha) and 37% in assay [3] (rate 40 kg/ha). Also, the “% Galled Roots” value was 45% in assay [3] (rate 8 kg/ha) and 38% in assay [3] (rate 40 kg/ha).

As to `CCCCCCCCCC(C)=O` [2-undecanone], the IC30 in assay [1] (4 h, read-out: IC30 C. elegans vs. L1) amounted to 6.3 µg/mL (≈ 37 µM); in assay [1] (4 h, read-out: IC30 C. elegans vs. L4) it was 25 µg/mL (≈ 147 µM); in assay [2] (24 h), 50 µg/mL (≈ 294 µM). Further, the “nematode control (in words)” value in assay [3] is reported as “demonstrated nematode control”. Besides, the “% Control” value in assay [3] (rate 8 kg/ha) was found to be 35%; in assay [3] (rate 40 kg/ha), 65%. The results for the “% Galled Roots” value in assay [3] (rate 8 kg/ha) and in assay [3] (rate 40 kg/ha) were 39% and 21%, respectively.

Regarding `CCCCCCCC(C)=O` [2-nonanone], the IC30 is 12.5 µg/mL (≈ 87.9 µM) in assay [1] (setting [5]), > 400 µg/mL in assay [1] (setting [6]) and 200 µg/mL (≈ 1410 µM) in assay [2] (setting [7]).

For `CCCCCCCCCCCC(C)=O` [2-tridecanone], the IC30 turned out to be 3.2 µg/mL (≈ 16.1 µM) in assay [1] (setting [5]), 12.5 µg/mL (≈ 63 µM) in assay [1] (setting [6]) and 50 µg/mL (≈ 252 µM) in assay [2] (setting [7]). Also, the “% Control” value was found to be 80% in assay [4] (rate 8 kg/ha), 96% in assay [4] (rate 40 kg/ha), 97% in assay [3] (rate 8 kg/ha) and 100% in assay [3] (rate 40 kg/ha). For the same compound, the “#cysts/plant” value was found to be 10 in assay [4] (rate 8 kg/ha) and 2 in assay [4] (rate 40 kg/ha). In addition, the “% Galled Roots” value in assay [3] (rate 8 kg/ha) was found to be 2%; in assay [3] (rate 40 kg/ha), 0%.

Source of the values: patent publication US9006517B2, “Methods and compositions for plant pest control” (Monsanto Technology LLC, priority 2008, dated 2015).
